#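 Test compounds were applied to cells in 96-well plates for 48 hours at 5 doses. At the GI50, growth is halved.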 Calls of active or inactive are those of the source. Rule as the data show it: active = GI50 up to about 1.1 µM and inactive = higher.
# Tests used:
# Assay in all cases: NCI-60 cell line screen, 48 h
# DLD-1 = test system: DLD-1
# DMS-114 = test system: DMS-114
# DMS-273 = test system: DMS-273
# KM-20L2 = test system: KM-20L2
# M19-MEL = test system: M19-MEL
# SNB-78 = test system: SNB-78
# XF498 = test system: XF498
# HOP-18 = test system: HOP-18
# RXF 631 = test system: RXF 631
SMILES,GI50 (DLD-1),GI50 (DMS-114),GI50 (DMS-273),GI50 (KM-20L2),GI50 (M19-MEL),GI50 (SNB-78),GI50 (XF498),GI50 (HOP-18),GI50 (RXF 631)
CCc1cccc(C(C)CC)c1NC(=O)C(=O)Cc1nc2ccccc2o1 (stereo not drawn),> 50 µM (inactive),> 50 µM (inactive),> 50 µM (inactive),> 50 µM (inactive),> 50 µM (inactive),> 50 µM (inactive),> 50 µM (inactive),–,–
CN(C)CCNC(=O)c1cccc2c1nc(-c1ccncc1)c1ccccc12,2.38 µM (inactive),2.84 µM (inactive),0.767 µM (active),–,2.82 µM (inactive),5.9 µM (inactive),–,9.91 µM (inactive),–
COC(=O)CCC(NC(=S)N/N=C(\C)c1cnc2ccccc2n1)C(=O)OC (stereo not drawn),29 µM (inactive),–,38.5 µM (inactive),15.5 µM (inactive),–,> 100 µM (inactive),> 100 µM (inactive),39.4 µM (inactive),52.6 µM (inactive)
CC1=C(C(=O)Nc2cccc(Cl)c2)C(c2ccccc2F)C(C(=O)Nc2cccc(Cl)c2)=C(C)N1,10.4 µM (inactive),6.32 µM (inactive),11.9 µM (inactive),7.46 µM (inactive),11.6 µM (inactive),18.7 µM (inactive),–,–,10.1 µM (inactive)
CCCN1CC=CCC1,> 100 µM (inactive),> 100 µM (inactive),–,> 100 µM (inactive),> 100 µM (inactive),–,> 100 µM (inactive),> 100 µM (inactive),–
Cc1ccc(Oc2ccc(C)cc2N)cc1,66.1 µM (inactive),49.4 µM (inactive),75 µM (inactive),> 100 µM (inactive),> 100 µM (inactive),75.5 µM (inactive),–,> 100 µM (inactive),–
COc1ccc2oc3c4c2c1CCC4CCC3=O (stereo not drawn),–,> 100 µM (inactive),> 100 µM (inactive),–,> 100 µM (inactive),> 100 µM (inactive),> 100 µM (inactive),–,> 100 µM (inactive)
COC(=O)C(=O)C(C(C)=O)C(=O)NCc1ccccc1 (stereo not drawn),> 100 µM (inactive),> 100 µM (inactive),> 100 µM (inactive),> 100 µM (inactive),> 100 µM (inactive),> 100 µM (inactive),> 100 µM (inactive),> 100 µM (inactive),–
O=C(Cc1ccccc1)N/N=C(\C1=Nc2ccc([N+](=O)[O-])cc2NC1O)C(O)c1ccc([N+](=O)[O-])cc1 (stereo not drawn),> 100 µM (inactive),–,–,> 100 µM (inactive),> 100 µM (inactive),> 100 µM (inactive),> 100 µM (inactive),> 100 µM (inactive),> 100 µM (inactive)
CCOP(=O)(OCC)C(C(=O)OC)C(=O)C(=O)Nc1c(C)cc(Br)cc1C (stereo not drawn),> 100 µM (inactive),> 100 µM (inactive),> 100 µM (inactive),> 100 µM (inactive),> 100 µM (inactive),> 100 µM (inactive),> 100 µM (inactive),49.7 µM (inactive),> 100 µM (inactive)
O=C1C(Cl)=C(N2CCN(C3=C(Cl)C(=O)c4ccccc4C3=O)CC2)C(=O)c2ccccc21,0.428 µM (active),1.34 µM (inactive),2.14 µM (inactive),3.78 µM (inactive),1.53 µM (inactive),0.61 µM (active),1.36 µM (inactive),–,1.85 µM (inactive)
CCOc1ccc2c(c1)[n+]([O-])c(S(=O)(=O)c1ccc(C)cc1)c(N)[n+]2[O-],> 100 µM (inactive),> 100 µM (inactive),–,> 100 µM (inactive),> 100 µM (inactive),> 100 µM (inactive),–,> 100 µM (inactive),–
COCCOCOC(CCCCO)c1cc(C)c(O[Si](C)(C)C(C)(C)C)c(C)c1 (stereo not drawn),–,2.47 µM (inactive),–,4.72 µM (inactive),5.11 µM (inactive),–,–,16.9 µM (inactive),–
COc1ccc(/C=C\c2cc(OC)c3c(c2)OCO3)c(O)c1O,6.28 µM (inactive),2.88 µM (inactive),20 µM (inactive),23.2 µM (inactive),6.19 µM (inactive),3.94 µM (inactive),11.1 µM (inactive),20.6 µM (inactive),–
CC1C2=CC=C(O2)C(C)(C)C2=CC=C(O2)C(C)(C)C2=CC=C(O2)C(C)(C)C2=CC=C1O2,–,–,> 100 µM (inactive),> 100 µM (inactive),> 100 µM (inactive),> 100 µM (inactive),> 100 µM (inactive),> 100 µM (inactive),–
Oc1cc(-c2ccccn2)nc2cccc(F)c12,> 100 µM (inactive),> 100 µM (inactive),–,> 100 µM (inactive),> 100 µM (inactive),> 100 µM (inactive),–,> 100 µM (inactive),> 100 µM (inactive)
COc1ccc2c(NCCCCCCNc3c4ccccc4nc4cc(OC)ccc34)c3ccccc3nc2c1,0.242 µM (active),0.1 µM (active),0.0313 µM (active),0.065 µM (active),0.0484 µM (active),0.12 µM (active),–,2.15 µM (inactive),0.126 µM (active)
Cc1cc(N(CCC#N)CCC#N)ccc1/C=C1N=C(/C=C/c2ccccc2)N(c2ccc(S(N)(=O)=O)cc2)C\1=O,> 100 µM (inactive),> 100 µM (inactive),–,> 100 µM (inactive),> 100 µM (inactive),> 100 µM (inactive),–,–,> 100 µM (inactive)
BrC1(Br)C2/C=C\CCCCC21 (stereo not drawn),–,–,> 100 µM (inactive),> 100 µM (inactive),> 100 µM (inactive),> 100 µM (inactive),> 100 µM (inactive),> 100 µM (inactive),–
COc1ccc(C(=O)Cc2c(C(=O)c3ccccc3)c3ccccc3n2C(=O)c2ccccc2)cc1,74 µM (inactive),50.7 µM (inactive),5.38 µM (inactive),> 100 µM (inactive),> 100 µM (inactive),–,> 100 µM (inactive),–,–
CC1(c2ccc(F)cc2)C2C(=O)NC(=O)C1C(=O)NC2=O (stereo not drawn),> 100 µM (inactive),> 100 µM (inactive),> 100 µM (inactive),> 100 µM (inactive),> 100 µM (inactive),> 100 µM (inactive),> 100 µM (inactive),–,–
Cc1c(C(=O)/C=C/c2ccco2)[n+]([O-])c2ccccc2[n+]1[O-],> 100 µM (inactive),73.5 µM (inactive),> 100 µM (inactive),> 100 µM (inactive),> 100 µM (inactive),> 100 µM (inactive),> 100 µM (inactive),> 100 µM (inactive),18.6 µM (inactive)
CC1=NN(c2ccccc2)C(=O)C1=C1SCCS1,32.6 µM (inactive),> 46.3 µM (inactive),> 58.3 µM (inactive),> 65.6 µM (inactive),41.8 µM (inactive),> 100 µM (inactive),32.7 µM (inactive),36.3 µM (inactive),> 89.7 µM (inactive)
O=C(O)CNS(=O)(=O)c1ccc(NCc2ccccc2)cc1,> 100 µM (inactive),> 100 µM (inactive),> 100 µM (inactive),> 100 µM (inactive),> 100 µM (inactive),> 100 µM (inactive),> 100 µM (inactive),> 100 µM (inactive),–

# Source: ChEMBL document CHEMBL1201862, “PubChem BioAssay data set” (2004)
